Assay results from paper PMC11508974, “Computational Approach to Identifying New Chemical Entities as Elastase Inhibitors with Potential Antiaging Effects” (International Journal of Molecular Sciences, 2024).

Molecular target: T1, porcine pancreatic elastase (PPE) (Sus scrofa, UniProt P00772)
T1 construct: gene CELA1
Assay: Chromogenic elastase inhibition assay with SANA substrate, p-nitroaniline release
Assay type: biochemical

T1 sequence (P00772 27-266): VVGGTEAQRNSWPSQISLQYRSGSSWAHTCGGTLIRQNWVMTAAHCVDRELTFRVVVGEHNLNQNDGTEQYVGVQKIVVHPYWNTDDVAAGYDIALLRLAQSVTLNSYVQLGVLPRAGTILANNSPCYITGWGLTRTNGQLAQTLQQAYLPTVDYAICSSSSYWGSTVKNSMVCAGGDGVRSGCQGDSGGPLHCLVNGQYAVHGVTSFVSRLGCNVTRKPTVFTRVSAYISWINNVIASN

`Cc1cc(C)cc(Cn2c(SCC(=O)Nc3ccc(C)cc3Cl)nc3ccccc32)c1` [compound 2, N-(2-chloro-4-methylphenyl)-2-[[1-[(3,5-dimethylphenyl)methyl]-1H-benzimidazol-2-yl]thio]acetamide] was tested, and the IC50 was 60.4 ± 1.98 µM.
